Assay results taken from PubChem BioAssay (NCI).
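How tested: cells in 96-well plates exposed to compound for 48 hours at five concentrations. GI50 = concentration required for 50% inhibition of growth. TGI: concentration producing complete growth inhibition.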

Legend:
Experiment in all cases: NCI tumour cell line growth inhibition, 48 h
IGROV1 ovarian = test system: IGROV1 ovarian
786-0 renal = test system: 786-0 renal
MOLT-4 leukemia = test system: MOLT-4 leukemia
CAKI-1 renal = test system: CAKI-1 renal
RXF 393 renal = test system: RXF 393 renal
UACC-62 melanoma = test system: UACC-62 melanoma
NCI-H460 lung = test system: NCI-H460 lung
ACHN renal = test system: ACHN renal
EKVX NSCLC = test system: EKVX NSCLC

| Compound | GI50 (IGROV1 ovarian) | TGI (IGROV1 ovarian) | GI50 (786-0 renal) | TGI (786-0 renal) | GI50 (MOLT-4 leukemia) | TGI (MOLT-4 leukemia) | GI50 (CAKI-1 renal) | TGI (CAKI-1 renal) | GI50 (RXF 393 renal) | TGI (RXF 393 renal) | GI50 (UACC-62 melanoma) | TGI (UACC-62 melanoma) | GI50 (NCI-H460 lung) | TGI (NCI-H460 lung) | GI50 (ACHN renal) | TGI (ACHN renal) | GI50 (EKVX NSCLC) | TGI (EKVX NSCLC) |
| --- | --- | --- | --- | --- | --- | --- | --- | --- | --- | --- | --- | --- | --- | --- | --- | --- | --- | --- |
| COc1ccc2c(c1)C(=O)c1c-2n(CCCN=[N+]=[N-])c(=O)c2cc(N(C)C)ccc12 | > 100 µM | > 100 µM | 29.5 µM | > 100 µM | > 100 µM | > 100 µM | > 100 µM | > 100 µM | 5.16 µM | 80.8 µM | > 100 µM | > 100 µM | > 100 µM | > 100 µM | > 100 µM | > 100 µM | > 100 µM | > 100 µM |
| CCCCCCCCCCCCCCN |  | > 100 µM |  | > 100 µM |  | > 100 µM |  | > 100 µM |  | > 100 µM |  | > 100 µM |  | > 100 µM |  | > 100 µM |  | > 100 µM |
| CCN(CC)CCNc1ccc([N+](=O)[O-])c2sc3ccccc3c(=O)c12 | 0.285 µM | 1.02 µM | 0.958 µM | 2.35 µM | 0.386 µM | 1.87 µM |  |  | 1.43 µM | 3.03 µM | 2.79 µM | 16.8 µM | 0.443 µM | 1.96 µM | 0.646 µM | 4.44 µM | 0.692 µM | 2.53 µM |
| CN(C)c1ccc([O-])cc1.CN(C)c1ccc([O-])cc1.CN(C)c1ccc([O-])cc1.CN(C)c1ccc([O-])cc1.[Ti+4] | > 100 µM | > 100 µM | > 100 µM | > 100 µM | 38.1 µM | > 100 µM | > 100 µM | > 100 µM | 59 µM | > 100 µM | > 100 µM | > 100 µM | 37.4 µM | > 100 µM | 56.3 µM | > 100 µM | > 100 µM | > 100 µM |
| COc1ccc2c(c1)/C(=C\c1cccnc1)C(=O)N2 | 32.2 µM | > 100 µM | 18.3 µM | 45.7 µM | 23 µM | > 100 µM | 3.68 µM | 9.05 µM | 13.4 µM | 37 µM |  |  | 19.2 µM | 62.4 µM | 18.5 µM | 38.9 µM | 3.79 µM | 25.2 µM |
| CC1CC#CCOC(=O)CCCC1=O (centres undefined) |  | > 100 µM |  | > 100 µM |  | > 100 µM |  |  |  | > 100 µM |  | > 100 µM |  | > 100 µM |  |  |  |  |
| O=C(Nc1cccc([N+](=O)[O-])c1)C(=O)C(C(=O)c1ccccc1-c1ccccc1)C1OC(=O)c2ccccc21 (centres undefined) |  | 98.8 µM |  | 38.9 µM |  | 52.4 µM |  |  |  | 28.5 µM |  | 45.7 µM |  | 88 µM |  | > 100 µM |  | 59.1 µM |
| O=[N+]([O-])c1ccc(S(=O)Cc2ccccc2)c([N+](=O)[O-])c1 (centres undefined) | 14.1 µM | 33.9 µM | 4.91 µM | 17.3 µM | 2.1 µM | 4.88 µM | 1.85 µM | 3.85 µM | 1.45 µM | 2.78 µM | 2.55 µM | 8.89 µM | 16.4 µM | 33.2 µM | 1.62 µM | 3.07 µM | 12.8 µM | 26.6 µM |
